Earlier results, collected in patent US20020115211A1, “A METHOD FOR IN VITRO MATURATION OF HUMAN GAMETES” (MEDI-CULT A/S, priority 1998, published 2002).

Test system: immature human gametes
Details: presence in the culture medium; recent research

## insulin: Component of the SSR media additives
  effect on the chance for successful pregnancy: negative effect
